Calls of active or inactive are those of the source.
Columns and labels:
Large T antigen = Large T antigen (Simian virus 40, UniProt P03070); type: functional, Betapolyomavirus macacae;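 note: Confirmatory-stage PubChem screen for compounds that inhibit SV40 T antigen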
[1] = target: DNA dC->dU-editing enzyme APOBEC-3G (Homo sapiens, UniProt Q9HC16); test: Dose Response confirmation of small molecule APOBEC3G DNA Deaminase Inhibitors via a fluorescence-based single-stranded DNA deaminase assay. [Related pubchem assays (depositor defined):AID493012, AID493028]; type: functional
Chain of DNA dC->dU-editing enzyme APOBEC-3G (Q9HC16 whole entry): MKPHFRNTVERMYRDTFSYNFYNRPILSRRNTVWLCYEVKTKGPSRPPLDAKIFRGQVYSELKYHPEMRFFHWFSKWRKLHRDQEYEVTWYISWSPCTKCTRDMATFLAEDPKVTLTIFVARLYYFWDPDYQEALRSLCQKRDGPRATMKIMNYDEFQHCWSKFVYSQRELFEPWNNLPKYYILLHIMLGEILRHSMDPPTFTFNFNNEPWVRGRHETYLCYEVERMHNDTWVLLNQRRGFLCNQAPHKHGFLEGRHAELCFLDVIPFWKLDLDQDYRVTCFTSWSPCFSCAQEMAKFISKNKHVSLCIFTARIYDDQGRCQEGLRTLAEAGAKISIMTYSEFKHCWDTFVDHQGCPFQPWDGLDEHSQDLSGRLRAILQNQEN

Aminopeptidase N = target: T1, Aminopeptidase N (Plasmodium falciparum FcB1/Columbia, UniProt O96935); test: P. falciparum M1AAP inhibitors, biochemical, fluorogenic H-Leu-NHMec substrate, 1536-well (AID 1445); parameters: species or system Plasmodium falciparum 3D7, 3D7
T1 sequence (O96935 whole entry): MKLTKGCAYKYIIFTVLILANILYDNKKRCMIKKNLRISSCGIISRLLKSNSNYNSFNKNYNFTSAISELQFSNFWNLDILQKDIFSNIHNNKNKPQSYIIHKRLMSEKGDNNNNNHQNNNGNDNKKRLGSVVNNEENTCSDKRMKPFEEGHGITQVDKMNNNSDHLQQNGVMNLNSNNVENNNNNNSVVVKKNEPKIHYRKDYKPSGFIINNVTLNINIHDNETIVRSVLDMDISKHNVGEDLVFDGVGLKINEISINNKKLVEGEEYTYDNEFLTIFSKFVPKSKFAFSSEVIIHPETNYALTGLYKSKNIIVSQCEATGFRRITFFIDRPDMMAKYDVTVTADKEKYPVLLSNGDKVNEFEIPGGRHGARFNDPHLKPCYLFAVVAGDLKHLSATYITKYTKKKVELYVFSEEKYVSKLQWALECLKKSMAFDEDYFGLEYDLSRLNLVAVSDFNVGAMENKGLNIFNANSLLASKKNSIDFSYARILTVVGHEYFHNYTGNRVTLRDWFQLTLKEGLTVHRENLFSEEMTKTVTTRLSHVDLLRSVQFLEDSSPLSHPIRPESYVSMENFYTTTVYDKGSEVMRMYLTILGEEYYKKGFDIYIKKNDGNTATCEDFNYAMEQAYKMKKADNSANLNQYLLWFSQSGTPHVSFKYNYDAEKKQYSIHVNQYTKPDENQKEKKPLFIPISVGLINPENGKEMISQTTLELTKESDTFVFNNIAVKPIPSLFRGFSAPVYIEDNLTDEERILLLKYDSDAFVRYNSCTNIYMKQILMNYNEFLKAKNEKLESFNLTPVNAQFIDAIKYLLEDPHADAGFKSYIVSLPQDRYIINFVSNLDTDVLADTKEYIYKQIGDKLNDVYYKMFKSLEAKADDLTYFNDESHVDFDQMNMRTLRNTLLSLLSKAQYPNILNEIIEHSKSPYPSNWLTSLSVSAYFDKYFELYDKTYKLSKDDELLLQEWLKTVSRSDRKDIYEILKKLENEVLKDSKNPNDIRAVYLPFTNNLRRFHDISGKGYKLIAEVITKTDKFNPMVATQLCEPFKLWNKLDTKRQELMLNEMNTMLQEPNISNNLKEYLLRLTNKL

Troponin, cardiac muscle = Troponin, cardiac muscle (Homo sapiens, UniProt P19429+P45379+P63316); test: Fluorescence-based biochemical high throughput dose response assay for activators of the calcium sensitivity of cardiac Regulated Thin Filaments (RTF). [Related pubchem assays (depositor defined):AID493008, AID493018, AID504382, AID504383]; type: protein-complex assay
Leucine aminopeptidase = target: T2, Leucine aminopeptidase (Plasmodium falciparum 3D7, UniProt Q8IL11); test: P. falciparum M17LAP inhibitors, primary screen, biochemical, fluorogenic H-Leu-NHMec substrate, 1536-well (AID 1619); type: functional
T2 sequence (Q8IL11 whole entry): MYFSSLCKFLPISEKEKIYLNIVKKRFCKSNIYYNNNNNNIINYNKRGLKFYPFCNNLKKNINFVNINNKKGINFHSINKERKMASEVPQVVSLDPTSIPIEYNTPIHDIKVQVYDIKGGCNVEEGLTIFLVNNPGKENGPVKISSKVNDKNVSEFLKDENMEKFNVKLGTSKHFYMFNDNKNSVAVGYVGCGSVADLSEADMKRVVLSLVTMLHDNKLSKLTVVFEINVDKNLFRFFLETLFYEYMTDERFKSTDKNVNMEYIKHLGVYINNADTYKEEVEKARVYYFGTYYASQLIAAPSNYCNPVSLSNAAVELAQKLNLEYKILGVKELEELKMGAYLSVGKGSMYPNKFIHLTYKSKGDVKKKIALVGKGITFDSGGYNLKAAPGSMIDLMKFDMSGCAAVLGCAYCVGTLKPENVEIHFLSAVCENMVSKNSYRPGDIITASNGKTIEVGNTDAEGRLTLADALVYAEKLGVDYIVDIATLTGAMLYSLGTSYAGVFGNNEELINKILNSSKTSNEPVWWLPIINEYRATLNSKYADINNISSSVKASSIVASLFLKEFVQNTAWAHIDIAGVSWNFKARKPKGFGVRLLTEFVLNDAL

[2] = target: Eukaryotic translation initiation factor 4E (Mus musculus, UniProt P63073); test: eIF4E–eIF4G protein interaction inhibitors, dose response, biochemical, TR-FRET (AID 855); type: functional;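 note: potency for disrupting eIF4E binding to eIF4GI seen as loss of FRET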
Chain of Eukaryotic translation initiation factor 4E (P63073 whole entry): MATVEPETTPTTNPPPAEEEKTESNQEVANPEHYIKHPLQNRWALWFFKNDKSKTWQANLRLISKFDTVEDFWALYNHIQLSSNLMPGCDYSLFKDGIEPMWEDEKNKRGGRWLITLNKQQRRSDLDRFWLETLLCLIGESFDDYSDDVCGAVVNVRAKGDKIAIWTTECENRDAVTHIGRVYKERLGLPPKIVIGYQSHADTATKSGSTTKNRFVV

Protein skinhead-1 = target: T3, Protein skinhead-1 (Caenorhabditis elegans, UniProt P34707); type: functional
T3 sequence (P34707 whole entry): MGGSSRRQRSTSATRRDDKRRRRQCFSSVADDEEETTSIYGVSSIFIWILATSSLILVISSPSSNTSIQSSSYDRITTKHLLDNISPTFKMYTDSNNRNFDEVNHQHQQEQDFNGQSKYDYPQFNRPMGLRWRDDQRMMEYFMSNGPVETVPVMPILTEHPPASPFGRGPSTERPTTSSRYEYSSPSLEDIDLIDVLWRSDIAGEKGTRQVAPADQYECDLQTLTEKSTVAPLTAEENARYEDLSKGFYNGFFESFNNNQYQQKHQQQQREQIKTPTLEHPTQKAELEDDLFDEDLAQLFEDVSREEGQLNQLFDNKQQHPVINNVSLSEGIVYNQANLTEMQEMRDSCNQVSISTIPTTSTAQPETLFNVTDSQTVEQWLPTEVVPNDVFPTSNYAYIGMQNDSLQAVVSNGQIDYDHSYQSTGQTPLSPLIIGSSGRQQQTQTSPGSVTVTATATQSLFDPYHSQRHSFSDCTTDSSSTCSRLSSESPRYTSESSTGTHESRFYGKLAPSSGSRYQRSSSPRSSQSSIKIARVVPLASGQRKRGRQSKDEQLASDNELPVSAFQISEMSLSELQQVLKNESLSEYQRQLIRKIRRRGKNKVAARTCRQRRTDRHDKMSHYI

[3] = NIH-3T3 fibroblast cytotoxicity, dose response, cytotoxicity control, cell-based, fluorescence, Alamar Blue, secondary assay (AID 2327); type: functional;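 note: NIH-3T3 mouse fibroblasts cultured with fluconazole at 8 µg/mL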
[4] = C. albicans growth with fluconazole, confirmation, fluorescence, retest (AID 2467); type: functional, cell-based
[5] = target: Heat shock protein HSP 90-alpha (Homo sapiens, UniProt P07900); type: functional, organism-based
Vero [6] = test: cells; type: functional, cell-based; settings: Chlorocebus sabaeus
INS1 = test: beta cell apoptosis inhibitors, cytokine rescue, dose response, luminescence, retest (AID 449756); type: functional, cell-based; settings: Rattus norvegicus;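 note: cell death triggered by IL-1 beta plus TNF-alpha plus IFN-gamma mixture; protective hits raise ATP signal compared with cytokine alone wells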
Vero [7] = test: cells; type: functional; settings: Chlorocebus sabaeus
[8] = target: T4, DNA repair protein RAD52 homolog (Homo sapiens, UniProt P43351); type: functional, biochemical
T4 sequence (P43351 whole entry): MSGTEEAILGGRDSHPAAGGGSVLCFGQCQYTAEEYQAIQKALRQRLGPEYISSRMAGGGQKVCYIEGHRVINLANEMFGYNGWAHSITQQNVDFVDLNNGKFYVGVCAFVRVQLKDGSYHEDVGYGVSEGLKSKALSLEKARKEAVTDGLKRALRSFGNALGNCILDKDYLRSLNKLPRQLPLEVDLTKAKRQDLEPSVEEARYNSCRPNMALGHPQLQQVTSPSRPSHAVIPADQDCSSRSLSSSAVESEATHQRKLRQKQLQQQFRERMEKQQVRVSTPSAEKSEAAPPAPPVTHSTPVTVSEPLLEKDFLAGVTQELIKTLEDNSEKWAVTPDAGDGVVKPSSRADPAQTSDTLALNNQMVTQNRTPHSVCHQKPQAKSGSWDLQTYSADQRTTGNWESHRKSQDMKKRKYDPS

Cytochrome P450 1A2 = target: T5, Cytochrome P450 1A2 (Homo sapiens, UniProt P05177);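 note: PubChem cytochrome P450 panel assay, CYP1A2 panel member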
T5 sequence (P05177 whole entry): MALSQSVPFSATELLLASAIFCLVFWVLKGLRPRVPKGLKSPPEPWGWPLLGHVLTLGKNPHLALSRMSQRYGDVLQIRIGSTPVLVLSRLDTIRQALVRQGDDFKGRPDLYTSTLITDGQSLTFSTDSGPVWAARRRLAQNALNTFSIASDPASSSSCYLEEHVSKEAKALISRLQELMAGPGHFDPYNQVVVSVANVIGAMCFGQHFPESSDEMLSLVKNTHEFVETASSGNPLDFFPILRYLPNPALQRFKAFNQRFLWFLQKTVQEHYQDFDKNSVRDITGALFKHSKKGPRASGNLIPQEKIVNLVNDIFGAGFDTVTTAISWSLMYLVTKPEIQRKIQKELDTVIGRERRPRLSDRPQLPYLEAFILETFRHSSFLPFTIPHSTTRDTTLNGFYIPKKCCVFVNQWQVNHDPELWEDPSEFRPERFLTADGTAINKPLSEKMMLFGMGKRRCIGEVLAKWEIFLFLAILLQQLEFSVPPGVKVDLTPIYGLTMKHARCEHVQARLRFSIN

Cytochrome P450 2C9 = Cytochrome P450 2C9 (Homo sapiens, UniProt P11712)
Chain of Cytochrome P450 2C9 (P11712 whole entry): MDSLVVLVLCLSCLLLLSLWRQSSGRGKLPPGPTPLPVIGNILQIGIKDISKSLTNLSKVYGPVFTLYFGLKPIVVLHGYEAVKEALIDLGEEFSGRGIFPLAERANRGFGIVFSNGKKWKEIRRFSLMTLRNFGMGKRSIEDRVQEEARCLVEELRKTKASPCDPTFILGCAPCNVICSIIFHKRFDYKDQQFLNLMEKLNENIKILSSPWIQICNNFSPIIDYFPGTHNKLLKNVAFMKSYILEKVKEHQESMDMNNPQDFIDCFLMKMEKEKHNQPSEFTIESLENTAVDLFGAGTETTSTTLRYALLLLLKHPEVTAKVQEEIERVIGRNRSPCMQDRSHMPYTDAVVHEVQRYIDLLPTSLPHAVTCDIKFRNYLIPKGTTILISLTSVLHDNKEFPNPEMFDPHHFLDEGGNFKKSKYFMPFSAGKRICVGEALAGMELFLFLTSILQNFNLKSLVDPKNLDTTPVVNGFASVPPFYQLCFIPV

Cytochrome P450 2D6 = Cytochrome P450 2D6 (Homo sapiens, UniProt P10635);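 note: CYP2D6 member of a cytochrome P450 panel assay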
Chain of Cytochrome P450 2D6 (P10635 whole entry): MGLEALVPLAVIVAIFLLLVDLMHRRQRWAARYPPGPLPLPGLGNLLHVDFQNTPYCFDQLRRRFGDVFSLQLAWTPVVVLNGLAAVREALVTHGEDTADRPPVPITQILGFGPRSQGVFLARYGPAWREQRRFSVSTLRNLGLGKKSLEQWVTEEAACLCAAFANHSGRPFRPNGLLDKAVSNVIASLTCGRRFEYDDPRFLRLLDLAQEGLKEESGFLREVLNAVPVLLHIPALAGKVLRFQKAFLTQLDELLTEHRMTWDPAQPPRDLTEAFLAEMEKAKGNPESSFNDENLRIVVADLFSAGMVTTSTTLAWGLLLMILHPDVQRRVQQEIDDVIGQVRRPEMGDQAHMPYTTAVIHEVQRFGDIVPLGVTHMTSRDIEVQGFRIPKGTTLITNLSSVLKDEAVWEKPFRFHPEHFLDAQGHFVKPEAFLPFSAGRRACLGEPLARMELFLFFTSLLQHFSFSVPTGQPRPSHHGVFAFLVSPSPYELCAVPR

[9] = target: T6, Microphthalmia-associated transcription factor (Homo sapiens, UniProt O75030); test: TRPM1 promoter luciferase signal decrease, dose response, MITF inhibitor project, cell-based, SK-MEL-5, cherry-picked, set 3 (AID 493073); type: functional
T6 sequence (O75030 whole entry): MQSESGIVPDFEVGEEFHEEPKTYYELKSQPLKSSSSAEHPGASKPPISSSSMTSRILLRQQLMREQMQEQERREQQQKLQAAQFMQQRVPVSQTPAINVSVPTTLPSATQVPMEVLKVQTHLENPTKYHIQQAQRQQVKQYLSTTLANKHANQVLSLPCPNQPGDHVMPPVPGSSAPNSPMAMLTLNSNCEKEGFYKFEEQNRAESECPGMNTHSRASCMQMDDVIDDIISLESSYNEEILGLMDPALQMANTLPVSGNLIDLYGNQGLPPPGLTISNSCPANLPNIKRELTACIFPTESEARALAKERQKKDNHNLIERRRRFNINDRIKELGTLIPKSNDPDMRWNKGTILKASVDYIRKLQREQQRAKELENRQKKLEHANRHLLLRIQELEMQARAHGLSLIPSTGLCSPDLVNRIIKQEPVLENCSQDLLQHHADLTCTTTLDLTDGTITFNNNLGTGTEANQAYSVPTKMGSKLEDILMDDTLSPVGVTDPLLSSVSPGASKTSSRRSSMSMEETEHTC

Chain of Large T antigen (P03070 whole entry): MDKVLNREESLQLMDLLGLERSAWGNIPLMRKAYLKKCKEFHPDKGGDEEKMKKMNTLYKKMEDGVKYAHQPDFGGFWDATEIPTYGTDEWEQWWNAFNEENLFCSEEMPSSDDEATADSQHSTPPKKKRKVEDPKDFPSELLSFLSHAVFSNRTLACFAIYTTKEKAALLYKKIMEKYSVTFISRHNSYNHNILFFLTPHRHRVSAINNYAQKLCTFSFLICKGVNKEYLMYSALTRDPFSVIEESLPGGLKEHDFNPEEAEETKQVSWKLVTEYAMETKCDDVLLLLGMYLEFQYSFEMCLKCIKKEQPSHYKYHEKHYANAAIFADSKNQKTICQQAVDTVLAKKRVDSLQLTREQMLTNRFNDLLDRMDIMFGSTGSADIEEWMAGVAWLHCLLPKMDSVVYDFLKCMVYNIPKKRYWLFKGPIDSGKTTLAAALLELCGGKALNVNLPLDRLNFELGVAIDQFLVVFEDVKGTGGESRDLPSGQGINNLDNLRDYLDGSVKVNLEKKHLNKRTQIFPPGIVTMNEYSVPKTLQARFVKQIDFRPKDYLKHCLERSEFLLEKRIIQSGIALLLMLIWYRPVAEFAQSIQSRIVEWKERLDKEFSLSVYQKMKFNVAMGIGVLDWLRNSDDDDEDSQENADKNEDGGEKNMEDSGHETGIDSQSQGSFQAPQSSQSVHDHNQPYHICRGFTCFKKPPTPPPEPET

Compound: Cc1ccc(C2(C)NC(=O)N(CC(=O)Nc3nc(-c4ccccn4)cs3)C2=O)cc1 (stereo not drawn)
- IC50 (Large T antigen): > 100 µM (active)
- IC50 [1]: 25.6 µM (active)

Compound: C=CCn1c(=N)c(C(=O)NCCCOC)cc2c(=O)n3cccc(C)c3nc21
- IC50 (Aminopeptidase N): 47.6 µM (active)

Compound: S=C(Nc1cc(Cl)ccc1Oc1ccccc1)N1CCN(c2ccccn2)CC1
- EC50 (Troponin, cardiac muscle): > 71.4 µM (inactive)

Compound: Cc1ccc(C(=O)Nc2nc(=O)n(C(=O)c3ccccc3Cl)s2)cc1
- IC50 (Leucine aminopeptidase): 13.8 µM (active)
- IC50 (Aminopeptidase N): 38.8 µM (active)

Compound: CCOC(=O)c1ccc2c(c1)nc(SCC(=O)c1cc3ccccc3o1)n2CC
- IC50 [2]: > 64 µM (inactive)
- IC50 (Protein skinhead-1): > 100 µM (inactive)

Compound: CCCCOc1ccc(C(=O)NNC(=S)NC(=O)CC)cc1
- EC50 [3]: > 160 µM (inactive)
- EC50 [4]: 0.621 µM (active)
- AC50 [5]: 4.33 µM (active)
- IC50 (Vero [6]): 5.78 µM (active)
- AC50 (INS1): 3.17 µM (active)
- CC50 (Vero [7]): 13.2 µM (active)

Compound: O=C1NN=C(CSc2nnc(S)s2)CS1
- IC50 [1]: 9.78 µM (active)

Compound: CCc1nc(N=C(N)N)nc2ccccc12
- IC50 (Aminopeptidase N): 48.5 µM (active)
- AC50 [8]: 20.2 µM (active)

Compound: Cc1cc(OCc2nnn[nH]2)c2c3c(c(=O)oc2c1)CCCC3
- IC50 (Aminopeptidase N): 68.9 µM (active)

Compound: COc1ccccc1NC(=O)c1ccc(NC(=O)c2cc3c(s2)CCC3)cc1
- IC50 [2]: > 64 µM (inactive)

Compound: COc1cccc(Cn2c(=O)c(-c3cccs3)nc3cnc(N4CCN(C)CC4)nc32)c1
- AC50 (Cytochrome P450 1A2): 5.01 µM (inconclusive)
- AC50 (Cytochrome P450 2C9): inconclusive

Compound: COc1ccccc1/C=C/C=C1\Oc2c(ccc(O)c2CN2CCN(CCO)CC2)C1=O
- EC50 (Troponin, cardiac muscle): 1.37 µM (active)

Compound: CN=C(S)N=Nc1c(O)[nH]c2ccccc12
- IC50 (Aminopeptidase N): 47.9 µM (active)

Compound: CN(C)c1ccc(-c2cc(Nc3ccc(F)cc3)ncn2)cc1
- AC50 (Cytochrome P450 2D6): 39.8 µM (inconclusive)
- AC50 (Cytochrome P450 2C9): inconclusive

Compound: C/C(NCC1CCCO1)=C1/C(=O)NC(=O)N(c2ccccc2)C1=O (stereo not drawn)
- IC50 [2]: > 64 µM (inactive)

Compound: CC(NC(=O)C12CC3CC(CC(C3)C1)C2)C(=O)NN=Cc1ccc([N+](=O)[O-])o1 (stereo not drawn)
- AC50 [9]: 7.79 µM (active)

Compound: COc1ccc(OC)c(N2C(=O)/C(=C/NCCN3CCNCC3)C(=O)NC2=S)c1
- EC50 (Troponin, cardiac muscle): > 71.5 µM (inactive)

Compound: Cc1ccc(S(=O)(=O)CC(O)CN2CCCC2=O)cc1 (stereo not drawn)
- AC50 (Cytochrome P450 2C9): inconclusive

Compound: O=C(Nc1cccc2ccccc12)c1ccc(Br)o1
- IC50 [2]: > 64 µM (inactive)

Compound: Sc1nnc(-c2ccccn2)n1/N=C/c1ccccc1
- IC50 [1]: 9.26 µM (active)

Compound: COC(COC(N)=O)C1=C(N2CC2)C(=O)C(C)=C(N2CC2)C1=O (stereo not drawn) [CARBOQUONE]
- IC50 (Vero [6]): > 25 µM (active)
- CC50 (Vero [7]): 0.3 µM (active)

— ChEMBL document CHEMBL1201862, “PubChem BioAssay data set” (2004)
